For one experiment, the system named is WSSV. In words: Antiviral activity detection: WSSV pre-incubated with peptide injected into E. carinicauda, in vivo WSSV copy number. The arrangement: species or system Exopalaemon carinicauda. The following applies: E. carinicauda pleopods, 24 h post injection; WSSV (10^3 copies/μL) pre-incubated 2 h at room temperature with 50 μM peptide, 10 μL injected; VP28 real-time PCR; n = 15; WSSV group 1.21 × 10^5, blank 1.31 × 10^3. Here is the method:
Exopalaemon carinicauda is being regarded as a good crustacean model animal for WSSV infection experiments. In this study, healthy E. carinicauda with a body length of 5.43 ± 0.30 cm and a body weight of 2.62 ± 0.42 g were used as experimental animals for WSSV infection assay. Animals were acclimatized in the aerated seawater at 25 °C for 1 day before experiments.
In order to learn the effect of synthetic LBD peptides on WSSV infection, WSSV pre-incubated with different peptides was injected into E. carinicauda and the WSSV copy number in the pleopods of E. carinicauda was detected. E. carinicauda was classified into 13 groups and each group contained 18 to 20 individuals. The 13 groups were named as Blank, WSSV, pGFP, LBD1, LBD2, LBD3, LBD4, LBD5, LBD6, LBD7, sLBD2, LBD2-K and LBD4+K, respectively. Synthetic peptides were diluted into 50 μM with PBS (pH 7.4). WSSV was incubated with each peptide solution for 2 h at room temperature with a final concentration 10^3 copies/μL. […] For WSSV group, each shrimp was injected with 10 μL WSSV incubated with PBS (pH 7.4) for 2 h at room temperature. For the other groups (LBD1–LBD7, sLBD2, LBD2-K and LBD4+K), each shrimp was injected with 10 μL of WSSV solution after incubation with corresponding synthetic peptides, respectively. At 24 h post injection (hpi), the pleopods of 15 shrimps in each group were collected and the pleopods from three individuals were put together as one sample. Total DNA of each sample was extracted using the Genomic DNA Kit (Tiangen, China). The viral copy number was measured by detecting the level of VP28 using real-time PCR as described previously.

In another experiment the test system is M. luteus. In words: Inhibition zone test. It counts as cell-based, Micrococcus luteus. The following applies: 20 μL of 64 μM peptide in PBS pH 7.4 on 6 mm filter paper, solid LB plate, 37 °C, 24 h. Here is the method: (§1) Gram-negative bacteria, including Escherichia coli and Aeromonas hydrophila, and Gram-positive bacteria, including Micrococcus luteus and Bacillus simplex were used for antibacterial analyses. The strains were incubated in fresh LB medium overnight at 37 °C for E. coli, M. luteus and 28 °C for A. hydrophila, B. simplex.
(§2) The antibacterial activities of LBD peptides were examined by inhibition zone test. The overnight cultures of bacteria were diluted 100 times and cultured in LB medium at 37 °C (E. coli and M. luteus) or 28 °C (A. hydrophila and B. simplex) for 6 h. These cultures were then diluted 100 times with LB medium separately, and 200 μL solutions from each diluted cultures was taken out and spread on the solid LB medium plate uniformly. Sterile filter paper with a diameter of 6 mm was put on the surface of solid LB medium gently. Twenty microliters of 64 μM peptide solution dissolved in PBS (pH 7.4) was added to the center of filter paper with a diameter of 6 mm. Twenty microliters PBS and 20 μL of 64 μM pGFP peptide were used as negative controls. […] ampicillin solutions was used as the positive control for E. coli, M. luteus and B. simplex culture, and 50 μM kanamycin sulfates was used as the positive control for A. hydrophila culture. The plates were cultured at 37 °C (E. coli and M. luteus) or 28 °C (A. hydrophila and B. simplex) for 24 h.

The next experiment deals with A. hydrophila. In words: Inhibition zone test. It is filed as cell-based, Aeromonas hydrophila. The following applies: 20 μL of 64 μM peptide in PBS pH 7.4 on 6 mm filter paper, solid LB plate, 28 °C, 24 h. Here is the method: as §1, §2

Where a SMILES comes first, the peptide text is derived from it.

With `CSCC[C@@H]1NC(=O)[C@H](CCCNC(=N)N)NC(=O)CNC(=O)[C@H](CCCNC(=N)N)NC(=O)[C@H](Cc2ccccc2)NC(=O)[C@H](Cc2ccc(O)cc2)NC(=O)[C@H](CC(C)C)NC(=O)[C@H](CCC(N)=O)NC(=O)[C@H](Cc2c[nH]c3ccccc23)NC(=O)[C@H](CCCNC(=N)N)NC(=O)[C@H](CCCCN)NC(=O)[C@H](Cc2ccccc2)NC(=O)[C@H](CCCCN)NC(=O)[C@@H]2CCCN2C(=O)[C@H]([C@@H](C)O)NC(=O)[C@H](C(C)C)NC(=O)[C@H](CC(N)=O)NC(=O)[C@H](Cc2ccccc2)NC(=O)[C@H](CO)NC(=O)[C@@H](NC(=O)[C@H](Cc2ccc(O)cc2)NC(C)=O)CSSC[C@@H](C(=O)N2CCC[C@H]2C(N)=O)NC(=O)[C@H](Cc2c[nH]c3ccccc23)NC1=O` [LBD2] (HELM PEPTIDE1{[ac].Y.C.S.F.N.V.T.P.K.F.K.R.W.Q.L.Y.F.R.G.R.M.W.C.P.[am]}$PEPTIDE1,PEPTIDE1,3:R3-24:R3$$$V2.0), the WSSV copy number in the experiment with WSSV is reported as 1.40 × 10^3 copies/ng DNA. Besides, the Inhibition zone entry is listed as “Obvious inhibition zones” in the experiment on M. luteus and “exhibited inhibition zones” in the experiment with A. hydrophila.

The values are drawn from paper PMC4446596, “Functional Diversity of Anti-Lipopolysaccharide Factor Isoforms in Shrimp and Their Characters Related to Antiviral Activity” (Marine Drugs, 2015).
